Data taken from patent publication US20180303809A1, “TREATMENT OF BURN PAIN BY TRPV1 MODULATORS” (Purdue Pharma L.P., priority 2013, published 2018).
“And” between values parts separate entries of the source, which are not always exact repeats. Identical values can stand only once.

How the values were obtained:
Format in all cases: in vivo, rat
[1] = tested on: male Sprague-Dawley rats; test: Plantar test, thermal hyperalgesia (PWL) in thermal burn pain model; conditions: rat burn injury 50° C. 48 s, 30 mg/kg PO
Procedure: (§1) Test Animals: Each experiment used male Sprague-Dawley rats weighing between 190-260 g at the time of thermal burn injury. The rats were housed two per cage, and were allowed to acclimate to their environment for at least six days before testing began. The rats had free access to food and water at all times, except during testing and prior to oral (PO) administration of a test compound, when food was removed about 16 hours before dosing. The rats were divided into treatment groups, and one of the following compounds was administered to each group at the dose and by the route of administration indicated in Tables 5.2A to 5.2C, 5.3A and 5.3B, and 5.4A and 5.4B: ketorolac (Sigma-Aldrich, St. Louis, Mo.), AMG 517 (selective TRPV1 antagonist described in Em. Doherty et al., “Novel vanilloid receptor-1 antagonists:2. Structure-activity relationships of 4-oxopyrimidines leading to the selection of a clinical candidate,” J Med Chem 50:3515-3527 (2007).) (Purdue Pharma L. P., Cranbury, N.J.), indomethacin (Alexis Biochemicals, Farmingdale, N.Y.), gabapentin (Bosche Scientific, New Brunswick, N.J.), or (S)-3-chloro-5-(1,2-dihydroxyethyl)-N-(5-(trifluoromethyl)pyridin-2-yl)-5′,6′-dihydro-[2,4′-bipyridine]-1′(2′H)-carboxamide (Compound 1). The control groups were administered the vehicle for the compound of formula (I). The volume of administration for PO treatment was 5 ml/kg, and was the same for all treatment groups. Volume of administration for intraperitoneal (i.p.) drug administration was 2 ml/kg.
(§2) To assess the actions of a compound of formula (I) for the treatment or prevention of burn pain, a model of thermal burn pain was used. A thermal burn injury was induced under isofluorane/O2 inhalation anesthesia. To assess mechanical hyperalgesia and weight bearing, a thermal injury was produced by immersing the left hind paw into water maintained at 55° C. for 24 seconds. The left hind paw of non-injured control animals was immersed in 22° C. water for 24 seconds. To assess thermal hyperalgesia, a thermal injury was produced by immersing the left hindpaw into water maintained at 50° C. for 48 seconds; the left hind-paw of non-injured control animals was immersed in 22° C. water for 48 seconds. The animals were assessed for response to noxious mechanical stimuli by determining PWT for mechanical hyperalgesia, weight bearing difference between the injured or non-injured side, or response to noxious thermal stimuli by determining PWL for thermal hyperalgesia, all as described below, prior to drug administration (baseline), then again at 1, 3 and 5 hours after induction of burn injury.
The plantar test was used to assess thermal hyperalgesia. For this test, hind paw withdrawal latencies (PWL) to a noxious thermal stimulus were determined using a plantar test apparatus (commercially available from Ugo Basile of Italy) following the technique described by K. Hargreaves et al., “A New and Sensitive Method for Measuring Thermal Nociception in Cutaneous Hyperalgesia,” Pain 32(1):77-88 (1988). The maximum exposure time was set at 32 seconds to avoid tissue damage and any directed paw withdrawal from the heat source is taken as the end point. Three latencies were determined at each time point and averaged.

[2] = tested on: male Sprague-Dawley rats; test: Hind limb weight bearing (incapacitance meter, % WL) in thermal burn pain model; conditions: rat burn injury 55° C. 24 s
Procedure: as §1, §2
A commercially available incapacitance meter was used to determine the weight distribution on the two hind paws of the animal (Linton Incapacitance Tester (Linton Instrumentation, Norfolk, UK)). The weight bearing difference (WBD) between the injured and non-injured hindpaw was measured. The animal was placed in the testing chamber that allows the animal to stand normally, distributing its body weight on the hind limbs for the test. Each hind paw was positioned on a separate pressure sensitive pad, which independently measures the pressure applied by each limb. The device continuously collects data after either a force threshold has been exceeded, or the investigator depresses the start pad. Rats were allowed to acclimate when placed on the apparatus, and when they were stationary, the force exerted was then continuously monitored for 3 s. The endpoint was the amount of pressure applied to each limb over time. Three readings were taken for each rat at each time point, and the average used for data analysis. WBD was expressed as “% WL”, i.e. the percentage of weight borne on the burn-injured left hind paw, using the following formula: […]
where WLP is the weight on the left hind paw and WRP is the weight on the right (untreated) hind paw. The 50% value of % WL corresponds to an equal weight distribution across both hind paws. […]

[3] = tested on: male Sprague-Dawley rats; test: Paw pressure assay, mechanical hyperalgesia (PWT) in thermal burn pain model; conditions: rat burn injury 55° C. 24 s
Procedure: as §1, §2
The paw pressure assay was used to assess mechanical hyperalgesia. For this assay, hind paw withdrawal thresholds (PWT) to a noxious mechanical stimulus were determined using an analgesimeter (Model 7200, commercially available from Ugo Basile of Italy) as described in C. Stein, “Unilateral Inflammation of the Hindpaw in Rats as a Model of Prolonged Noxious Stimulation: Alterations in Behavior and Nociceptive Thresholds,” Pharmacol. Biochem. and Behavior 31:451-455 (1988). The rat's paw was placed on a small platform, and weight was applied in a graded manner up to a maximum of 250 grams. The endpoint was taken as the weight at which the paw was completely withdrawn. PWT was determined once for each rat at each time point, wherein the affected (ipsilateral; same side as the injury) rear paw was tested. […] All drug treatment groups were compared to the vehicle control group (i.e. injured, administered only the vehicle).

[4] = baseline (prior to drug administration)
[5] = 30 mg/kg PO, 1 h after administration
[6] = 30 mg/kg PO, 3 h after administration
[7] = 30 mg/kg PO, 5 h after administration
[8] = 30 mg/kg PO, baseline (prior to drug administration)
[9] = 3 mg/kg IP, 1 h after administration
[10] = 3 mg/kg IP, 3 h after administration
[11] = 3 mg/kg IP, 5 h after administration
[12] = 10 mg/kg IP, 1 h after administration
[13] = 10 mg/kg IP, 3 h after administration
[14] = 10 mg/kg IP, 5 h after administration
[15] = 30 mg/kg IP, 1 h after administration
[16] = 30 mg/kg IP, 3 h after administration
[17] = 30 mg/kg IP, 5 h after administration
[18] = 100 mg/kg IP in 0.9% NaCl, 1 h after administration, 100 mg/kg
[19] = 100 mg/kg IP in 0.9% NaCl, 5 h after administration, 100 mg/kg

CC(=O)Nc1nc2c(Oc3cc(-c4ccc(C(F)(F)F)cc4)ncn3)cccc2s1 [AMG 517]
% Change from Baseline (mean ± S.E.M.) of Paw Withdrawal Latency ([1]; 1 h after administration): −50.1 ± 25.49%
Paw Withdrawal Latency (sec) (mean ± S.E.M.) ([1]; 1 h after administration): 8.6 ± 0.91 s
% Change from Baseline (mean ± S.E.M.) of Paw Withdrawal Latency ([1]; 3 h after administration): −27.1 ± 16.54%
Paw Withdrawal Latency (sec) (mean ± S.E.M.) ([1]; 3 h after administration): 11.8 ± 0.66 s
% Change from Baseline (mean ± S.E.M.) of Paw Withdrawal Latency ([1]; 5 h after administration): −24.8 ± 15.95%
Paw Withdrawal Latency (sec) (mean ± S.E.M.) ([1]; 5 h after administration): 12.1 ± 0.60 s
Paw Withdrawal Latency (sec) (mean ± S.E.M.) [1, 4]: 14.4 ± 1.35 s
% WL (mean ± S.E.M.), percentage of weight borne on the burn-injured left hind paw [2, 5]: 39.2 ± 4.30 %
% WL (mean ± S.E.M.), percentage of weight borne on the burn-injured left hind paw [2, 6]: 43.1 ± 2.82%
% WL (mean ± S.E.M.), percentage of weight borne on the burn-injured left hind paw [2, 7]: 43.0 ± 3.37%
% WL (mean ± S.E.M.), percentage of weight borne on the burn-injured left hind paw [2, 8]: 49.4 ± 0.44%
% Decrease from Baseline (mean ± S.E.M.) of Paw Withdrawal Threshold [3, 5]: 61 ± 2.3%
Paw Withdrawal Threshold (g) (mean ± S.E.M.) [3, 5]: 94 ± 5.3 g
% Decrease from Baseline (mean ± S.E.M.) of Paw Withdrawal Threshold [3, 6]: 52 ± 4.3%
Paw Withdrawal Threshold (g) (mean ± S.E.M.) [3, 6]: 115 ± 10.8 g
% Decrease from Baseline (mean ± S.E.M.) of Paw Withdrawal Threshold [3, 7]: 65 ± 2.9%
Paw Withdrawal Threshold (g) (mean ± S.E.M.) [3, 7]: 86 ± 7.7 g
Paw Withdrawal Threshold (g) (mean ± S.E.M.) [3, 8]: 242 ± 6.0 g

NCC1(CC(=O)O)CCCCC1 [Gabapentin, gabapentin]
% WL (mean ± S.E.M.), percentage of weight borne on the burn-injured left hind paw ([2]; 100 mg/kg IP in NaCl, 1 h after administration): 33.6 ± 3.09 %
% WL (mean ± S.E.M.), percentage of weight borne on the burn-injured left hind paw ([2]; 100 mg/kg IP in NaCl, 3 h after administration): 44.8 ± 2.58%
% WL (mean ± S.E.M.), percentage of weight borne on the burn-injured left hind paw ([2]; 100 mg/kg IP in NaCl, 5 h after administration): 44.0 ± 2.24%
% WL (mean ± S.E.M.), percentage of weight borne on the burn-injured left hind paw ([2]; 100 mg/kg IP in NaCl, baseline (prior to drug administration)): 51.1 ± 0.57%
% Decrease from Baseline (mean ± S.E.M.) of Paw Withdrawal Threshold [3, 9]: 61 ± 2.1%
Paw Withdrawal Threshold (g) (mean ± S.E.M.) [3, 9]: 90 ± 4.1 g
% Decrease from Baseline (mean ± S.E.M.) of Paw Withdrawal Threshold [3, 10]: 55 ± 3.7%
Paw Withdrawal Threshold (g) (mean ± S.E.M.) [3, 10]: 102 ± 7.4 g
% Decrease from Baseline (mean ± S.E.M.) of Paw Withdrawal Threshold [3, 11]: 65 ± 3.0%
Paw Withdrawal Threshold (g) (mean ± S.E.M.) [3, 11]: 81 ± 6.5 g
Paw Withdrawal Threshold (g) (mean ± S.E.M.) ([3]; 3 mg/kg IP, baseline (prior to drug administration)): 232 ± 10.0 g
% Decrease from Baseline (mean ± S.E.M.) of Paw Withdrawal Threshold [3, 12]: 47 ± 3.9%
Paw Withdrawal Threshold (g) (mean ± S.E.M.) [3, 12]: 122 ± 9.1 g
% Decrease from Baseline (mean ± S.E.M.) of Paw Withdrawal Threshold [3, 13]: 43 ± 3.7%
Paw Withdrawal Threshold (g) (mean ± S.E.M.) [3, 13]: 130 ± 8.2 g
% Decrease from Baseline (mean ± S.E.M.) of Paw Withdrawal Threshold [3, 14]: 57 ± 3.2%
Paw Withdrawal Threshold (g) (mean ± S.E.M.) [3, 14]: 100 ± 8.7 g
Paw Withdrawal Threshold (g) (mean ± S.E.M.) ([3]; 10 mg/kg IP, baseline (prior to drug administration)): 231 ± 9.7 g
% Decrease from Baseline (mean ± S.E.M.) of Paw Withdrawal Threshold [3, 15]: 40 ± 2.0 %
Paw Withdrawal Threshold (g) (mean ± S.E.M.) [3, 15]: 144 ± 7.2 g
% Decrease from Baseline (mean ± S.E.M.) of Paw Withdrawal Threshold [3, 16]: 27 ± 5.1 %
Paw Withdrawal Threshold (g) (mean ± S.E.M.) [3, 16]: 174 ± 14.8 g
% Decrease from Baseline (mean ± S.E.M.) of Paw Withdrawal Threshold [3, 17]: 56 ± 4.0^ %
Paw Withdrawal Threshold (g) (mean ± S.E.M.) [3, 17]: 105 ± 11.2 g
Paw Withdrawal Threshold (g) (mean ± S.E.M.) ([3]; 30 mg/kg IP, baseline (prior to drug administration)): 237 ± 7.9 g
% Decrease from Baseline (mean ± S.E.M.) of Paw Withdrawal Threshold [3, 18]: 37 ± 5.3 % and 23 ± 6.6 % and 41 ± 3.6 %
Paw Withdrawal Threshold (g) (mean ± S.E.M.) [3, 18]: 152 ± 14.1 g and 180 ± 13.7 g and 145 ± 9.8 g
% Decrease from Baseline (mean ± S.E.M.) of Paw Withdrawal Threshold [3, 19]: 53 ± 6.0^ % and 55 ± 4.6^ % and 56 ± 2.2^ %
Paw Withdrawal Threshold (g) (mean ± S.E.M.) [3, 19]: 112 ± 12.4^ g and 105 ± 9.5 g and 108 ± 5.8^ g
Paw Withdrawal Threshold (g) (mean ± S.E.M.) ([3]; 100 mg/kg IP in 0.9% NaCl, baseline (prior to drug administration), 100 mg/kg): 239 ± 7.7 g and 237 ± 7.8 g and 246 ± 4.5^ g

COc1ccc2c(c1)c(CC(=O)O)c(C)n2C(=O)c1ccc(Cl)cc1 [Indomethacin, indomethacin]
% Change from Baseline (mean ± S.E.M.) of Paw Withdrawal Latency ([1]; 1 h after administration): −41.5 ± 10.71%
Paw Withdrawal Latency (sec) (mean ± S.E.M.) ([1]; 1 h after administration): 8.3 ± 0.91 s
% Change from Baseline (mean ± S.E.M.) of Paw Withdrawal Latency ([1]; 3 h after administration): −26.1 ± 13.18%
Paw Withdrawal Latency (sec) (mean ± S.E.M.) ([1]; 3 h after administration): 11.2 ± 0.87 s
% Change from Baseline (mean ± S.E.M.) of Paw Withdrawal Latency ([1]; 5 h after administration): −25.5 ± 13.63%
Paw Withdrawal Latency (sec) (mean ± S.E.M.) ([1]; 5 h after administration): 11.4 ± 0.51 s
Paw Withdrawal Latency (sec) (mean ± S.E.M.) [1, 4]: 14.3 ± 1.26 s
% WL (mean ± S.E.M.), percentage of weight borne on the burn-injured left hind paw ([2]; 30 mg/kg PO, 3 h after administration, 30 mg/kg): 42.6 ± 2.14% and 46.8 ± 2.17%
% WL (mean ± S.E.M.), percentage of weight borne on the burn-injured left hind paw ([2]; 30 mg/kg PO, 5 h after administration, 30 mg/kg): 43.7 ± 2.38% and 48.2 ± 2.54%
% WL (mean ± S.E.M.), percentage of weight borne on the burn-injured left hind paw ([2]; 30 mg/kg PO, baseline (prior to drug administration), 30 mg/kg): 49.1 ± 0.53% and 50.4 ± 0.54%
% Decrease from Baseline (mean ± S.E.M.) of Paw Withdrawal Threshold [3, 5]: 51 ± 2.6 %
% Decrease from Baseline (mean ± S.E.M.) of Paw Withdrawal Threshold [3, 6]: 45 ± 5.8 %
% Decrease from Baseline (mean ± S.E.M.) of Paw Withdrawal Threshold [3, 7]: 58 ± 3.6%
Paw Withdrawal Threshold (g) (mean ± S.E.M.) [3, 7]: 103 ± 10.2 g
Paw Withdrawal Threshold (g) (mean ± S.E.M.) [3, 8]: 240 ± 7.5 g
